# “And” between values parts separate entries of the source, which are not always exact repeats. Equal values may be shown once.
# Experiment: In vivo cytokine assay, plasma of CT26 tumor-bearing mice
# Parameters: species or system mouse
# Conditions: 1.86 mg/kg
# Experimental: Cytokines were measured in mouse plasma harvested at 3, 6, 24, or 48 hours after treatment with compounds or ADCs using a Milliplex MAP mouse cytokine/chemokine magnetic bead panel assay kit (MCYTOMAG-70k custom 11-plex kit: MCP1, MIP1α, MIP1β, TNFα, IFNγ, IL-10, IL-12p70, IL-6, IL-1β, IP10, RANTES) and analyzed using a Luminex™ MAGPIX™ Instrument System. Values that were outside of the standard curve range (<3.2 or […]) were excluded from calculation of the mean values.
smiles,measurement,setting,value
"CCn1nc(C)cc1C(=O)Nc1nc2cc(C(N)=O)cc(O)c2n1C/C=C/Cn1c(NC(=O)c2cc(C)nn2CC)nc2cc(C(N)=O)cc(OC)c21 [Compound 1, (E)-1-(4-(5-carbamoyl-2-(1-ethyl-3-methyl-1H-pyrazole-5-carboxamido)-7-hydroxy-1H-benzo[d]imidazol-1-yl)but-2-en-1-yl)-2-(1-ethyl-3-methyl-1H-pyrazole-5-carboxamido)-7-methoxy-1H-benzo[d]imidazole-5-carboxamide]",IL-6 in peripheral blood (plasma),3 h,622.1 and 781.4 and 1128.3
same,IP-10 in peripheral blood (plasma),3 h,1439.4 and 1501.7 and 1160.7
same,MCP-1 in peripheral blood (plasma),3 h,73.7 and 78.6 and 110.3
same,MIP1b in peripheral blood (plasma),3 h,297.7 and 336.8 and 224
same,MIP-1a in peripheral blood (plasma),3 h,3.9 and 3.2
same,TNFa in peripheral blood (plasma),3 h,3.2 and 4.9 and 4.3
same,IL-6 in peripheral blood (plasma),6 h,2652.5 and 2393.5 and 2412.7
same,IP-10 in peripheral blood (plasma),6 h,2610.8 and 2133.6 and 2473.4
same,MCP-1 in peripheral blood (plasma),6 h,3185.3 and 2816.3 and 1634.8
same,MIP-1a in peripheral blood (plasma),6 h,94.6 and 93.6 and 73.9
same,TNFa in peripheral blood (plasma),6 h,16.9 and 16.6 and 10
same,IL-6 in peripheral blood (plasma),24 h,44.5 and 31.8 and 36.5
same,IL-10 in peripheral blood (plasma),24 h,3.2
same,IP-10 in peripheral blood (plasma),24 h,1121.6 and 1025.3 and 696.2
same,MCP-1 in peripheral blood (plasma),24 h,397.7 and 294.7 and 305.9
same,IL-10 in peripheral blood (plasma),48 h,3.2
same,IP-10 in peripheral blood (plasma),48 h,560.1 and 398.8 and 560

# — patent publication US20240123079A1 (Seagen Inc., priority 2021, published 2024)
